According to patent publication US11725010B2, “Polyheterocyclic compounds as METTL3 inhibitors” (Storm Therapeutics Limited, priority 2019, dated 2023):

Assays:
METTL3/14 = METTL3/14 (Homo sapiens (Human), UniProt Q86U44)
KASUMI-1 cells = test: Kasumi cell assay (CellTiter-Glo cell growth); type: cell-based; details: Homo sapiens, Kasumi 1; treated for 120 hours, CellTiter-Glo luminescence; read-out: KASUMI1 cells IC50
Description: Upon treatment, Kasumil cells were incubated for 10 min at RT with the CellTiter-Glo reagent (G7571, Promega). Measurement of the luminescence signal was performed on a microplate reader (Ensight, PerkinElmer).

Caov-3 cells = test: Caov3 CTG proliferation assay; type: cell-based; details: Homo sapiens, Caov-3; treated for 120 hours, CellTiter-Glo luminescence; read-out: Caov3 cells IC50
Description: CTG Assay (Caov3 Cell Line)
Upon treatment, Coav-3 cells were incubated for 10 min at RT with the CellTiter-Glo reagent (G7571, Promega). Measurement of the luminescence signal was performed on a microplate reader (Ensight, PerkinElmer).
Caov3 CTG Assay—Proliferation Assay

Sequence of METTL3/14 (Q86U44 whole entry): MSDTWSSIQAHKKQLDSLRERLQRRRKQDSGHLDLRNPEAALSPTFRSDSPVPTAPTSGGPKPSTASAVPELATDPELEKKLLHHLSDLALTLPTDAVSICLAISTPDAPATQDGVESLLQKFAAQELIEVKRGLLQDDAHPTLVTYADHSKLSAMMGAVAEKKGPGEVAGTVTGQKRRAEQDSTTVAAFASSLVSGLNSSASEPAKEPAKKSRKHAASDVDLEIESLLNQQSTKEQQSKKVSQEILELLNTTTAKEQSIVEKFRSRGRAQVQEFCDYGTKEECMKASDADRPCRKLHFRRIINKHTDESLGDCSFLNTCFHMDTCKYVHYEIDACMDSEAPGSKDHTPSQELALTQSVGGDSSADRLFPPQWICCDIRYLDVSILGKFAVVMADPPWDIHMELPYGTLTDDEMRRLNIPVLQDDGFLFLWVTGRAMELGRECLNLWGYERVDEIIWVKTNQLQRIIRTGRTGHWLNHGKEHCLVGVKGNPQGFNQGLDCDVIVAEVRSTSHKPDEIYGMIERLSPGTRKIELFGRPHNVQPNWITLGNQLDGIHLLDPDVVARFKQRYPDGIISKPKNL
Sequence of METTL3/14 (Q9HCE5 whole entry partner): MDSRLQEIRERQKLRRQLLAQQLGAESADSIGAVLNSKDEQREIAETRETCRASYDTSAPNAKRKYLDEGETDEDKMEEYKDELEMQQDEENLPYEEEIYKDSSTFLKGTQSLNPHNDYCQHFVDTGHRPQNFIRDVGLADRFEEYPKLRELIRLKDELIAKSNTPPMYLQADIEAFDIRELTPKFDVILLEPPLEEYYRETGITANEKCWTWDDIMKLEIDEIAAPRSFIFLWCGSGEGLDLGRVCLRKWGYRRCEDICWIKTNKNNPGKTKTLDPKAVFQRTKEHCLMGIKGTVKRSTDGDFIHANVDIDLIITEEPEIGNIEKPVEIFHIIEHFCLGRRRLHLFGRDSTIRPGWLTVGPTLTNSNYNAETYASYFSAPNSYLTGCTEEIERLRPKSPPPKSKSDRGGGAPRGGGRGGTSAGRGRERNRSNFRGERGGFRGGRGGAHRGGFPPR

Compound | IC50 (METTL3/14) [µM] | IC50 (KASUMI-1 cells) [µM] | IC50 (Caov-3 cells) [µM]
CC1(C)CCN(Cc2cc3ccc(CNC(=O)c4cc(=O)n5ccccc5n4)cc3[nH]2)C1 [Compound 92, N-({2-[(3,3-dimethylpyrrolidin-1-yl)methyl]-1H-indol-6-yl}methyl)-4-oxo-4H-pyrido[1,2-a]pyrimidine-2-carboxamide] | 0.0061 | 1.61 | 0.598
O=C(NCc1ccc2cc(CN3CC4(CC(F)C4)C3)[nH]c2c1)c1cc(=O)n2ccccc2n1 [Compound 93, N-{[2-({6-fluoro-2-azaspiro[3.3]heptanean-2-yl}methyl)-1H-indol-6-yl]methyl}-4-oxo-4H-pyrido[1,2-a]pyrimidine-2-carboxamide] | 0.0061 | 1.33 | 0.453
O=C(NCc1ccc2cc(CN3CC4(C3)CC(F)(F)C4)[nH]c2c1)c1cc(=O)n2ccccc2n1 [Compound 94, N-{[2-({6,6-difluoro-2-azaspiro[3.3]heptanean-2-yl}methyl)-1H-indol-6-yl]methyl}-4-oxo-4H-pyrido[1,2-a]pyrimidine-2-carboxamide] | 0.0061 | 2.24 | 0.681
O=C(NCc1ccc2cc(CN3CC(C4CCC4)C3)[nH]c2c1)c1cc(=O)n2ccccc2n1 [Compound 95, N-({2-[(3-cyclobutylazetidin-1-yl)methyl]-1H-indol-6-yl}methyl)-4-oxo-4H-pyrido[1,2-a]pyrimidine-2-carboxamide] | 0.0061 | 3.19 | 0.96
CCC1(CC)CN(Cc2cc3ccc(CNC(=O)c4cc(=O)n5ccccc5n4)cc3[nH]2)C1 [Compound 102, N-({2-[(3,3-diethylazetidin-1-yl)methyl]-1H-indol-6-yl}methyl)-4-oxo-4H-pyrido[1,2-a]pyrimidine-2-carboxamide] | 0.0061 | 0.525 | 0.23
O=C(NCc1ccc2cc(CN3CCC4(CCC4)C3)[nH]c2c1)c1cc(=O)n2ccccc2n1 [Compound 104, N-{[2-({6-azaspiro[3.4]octan-6-yl}methyl)-1H-indol-6-yl]methyl}-4-oxo-4H-pyrido[1,2-a]pyrimidine-2-carboxamide] | 0.0061 | 0.661 | 0.237
O=C(NCc1ccc2cc(CN3CC4CCCC4C3)[nH]c2c1)c1cc(=O)n2ccccc2n1 (stereo not drawn) [Compound 106, N-{[2-({octahydrocyclopenta[c]pyrrol-2-yl}methyl)-1H-indol-6-yl]methyl}-4-oxo-4H-pyrido[1,2-a]pyrimidine-2-carboxamide] | 0.0061 | 1.83 | 0.911
O=C(NCc1ccc2cc(CNCC3CC34CC4)[nH]c2c1)c1cc(=O)n2ccccc2n1 (stereo not drawn) [Compound 109, 4-oxo-N-[(2-{[({spiro[2.2]pentan-1-yl}methyl)amino]methyl}-1H-indol-6-yl)methyl]-4H-pyrido[1,2-a]pyrimidine-2-carboxamide] | 0.0061 | 1.47 | 0.608
O=C(NCc1ccc2cc(CNC3CC34CCC4)[nH]c2c1)c1cc(=O)n2ccccc2n1 (stereo not drawn) [Compound 110, 4-oxo-N-({2-[({spiro[2.3]hexan-1-yl}amino)methyl]-1H-indol-6-yl}methyl)-4H-pyrido[1,2-a]pyrimidine-2-carboxamide] | 0.0061 | 1.15 | 0.412
O=C(NCc1ccc2cc(CN3CCC4(CCCC4)C3)[nH]c2c1)c1cc(=O)n2ccccc2n1 [Compound 113, N-{[2-({2-azaspiro[4.4]nonan-2-yl}methyl)-1H-indol-6-yl]methyl}-4-oxo-4H-pyrido[1,2-a]pyrimidine-2-carboxamide] | 0.0061 | 1.65 | 0.575
CC1(CNCc2cc3ccc(CNC(=O)c4cc(=O)n5ccccc5n4)cc3[nH]2)CCC1 [Compound 117, N-{[2-({[(1-methylcyclobutyl)methyl]amino}methyl)-1H-indol-6-yl]methyl}-4-oxo-4H-pyrido[1,2-a]pyrimidine-2-carboxamide] | 0.0061 | 1.73 | 0.502
CC(NCc1cc2ccc(CNC(=O)c3cc(=O)n4ccccc4n3)cc2[nH]1)C12CC(F)(C1)C2 (stereo not drawn) [Compound 120, N-[(2-{[(1-{3-fluorobicyclo[1.1.1]pentan-1-yl}ethyl)amino]methyl}-1H-indol-6-yl)methyl]-4-oxo-4H-pyrido[1,2-a]pyrimidine-2-carboxamide] | 0.0061 | 0.447 | 0.203
c1cc(-c2cn(Cc3ccc4cc(CN5CC6(CCC6)C5)[nH]c4c3)nn2)c2cn[nH]c2c1 [Compound 122, 4-(1-{[2-({2-azaspiro[3.3]heptanean-2-yl}methyl)-1H-indol-6-yl]methyl}-1H-1,2,3-triazol-4-yl)-1H-indazole] | 0.0061 | 1.1 | 0.525
CC12CC(CNCc3cc4cnc(CNC(=O)c5cc(=O)n6ccccc6n5)cc4[nH]3)(C1)C2 [Compound 129, N-[(2-{[({3-methylbicyclo[1.1.1]pentan-1-yl}methyl)amino]methyl}-1H-pyrrolo[3,2-c]pyridin-6-yl)methyl]-4-oxo-4H-pyrido[1,2-a]pyrimidine-2-carboxamide] | 0.0061 | 2.9 | 0.699
O=C(NCc1cc2[nH]c(CNCC3CCC3)cc2cn1)c1cc(=O)n2ccccc2n1 [Compound 130, N-[(2-{[(cyclobutylmethyl)amino]methyl}-1H-pyrrolo[3,2-c]pyridin-6-yl)methyl]-4-oxo-4H-pyrido[1,2-a]pyrimidine-2-carboxamide] | 0.0061 | 3.16 | 0.457
O=C(NCc1cc2[nH]c(CNCC34CC(C3)C4)cc2cn1)c1cc(=O)n2ccccc2n1 [Compound 131, N-[(2-{[({bicyclo[1.1.1]pentan-1-yl}methyl)amino]methyl}-1H-pyrrolo[3,2-c]pyridin-6-yl)methyl]-4-oxo-4H-pyrido[1,2-a]pyrimidine-2-carboxamide] | 0.0061 | 1.14 | 0.237
O=C(NCc1cc2[nH]c(CNCC34CC(F)(C3)C4)cc2cn1)c1cc(=O)n2ccccc2n1 [Compound 132, N-[(2-{[({3-fluorobicyclo[1.1.1]pentan-1-yl}methyl)amino]methyl}-1H-pyrrolo[3,2-c]pyridin-6-yl)methyl]-4-oxo-4H-pyrido[1,2-a]pyrimidine-2-carboxamide] | 0.0061 | 0.785 | 0.268
O=C(NCc1cc2[nH]c(CN3CCC4(CCC4)C3)cc2cn1)c1cc(=O)n2ccccc2n1 [Compound 145, N-((2-((6-azaspiro[3.4]octan-6-yl)methyl)-1H-pyrrolo[3,2-c]pyridin-6-yl)methyl)-4-oxo-4H-pyrido[1,2-a]pyrimidine-2-carboxamide] | < 0.0061 | 0.717 | 0.201
O=C(NCc1ccc2cc(CNCC3CCC3)[nH]c2c1)c1cc(=O)n2ccccc2n1 [Example 2, N-[(2-{[(cyclobutylmethyl)amino]methyl}-1H-indol-6-yl)methyl]-4-oxo-4H-pyrido[1,2-a]pyrimidine-2-carboxamide] | 0.0061 | 0.587 | 0.237
O=C(NCc1ccc2c(F)c(CNCC3CCC3)[nH]c2c1)c1cc(=O)n2ccccc2n1 [Example 45, N-[(2-{[(cyclobutylmethyl)amino]methyl}-3-fluoro-1H-indol-6-yl)methyl]-4-oxo-4H-pyrido[1,2-a]pyrimidine-2-carboxamide] | 0.0061 | 0.764 | 0.574
